According to paper PMC8850660, “The P300 acetyltransferase inhibitor C646 promotes membrane translocation of insulin receptor protein substrate and interaction with the insulin receptor” (The Journal of Biological Chemistry, 2022):
pKd: −log10 of the molar value.

Tests used:
[1] = biological target: T1, insulin receptor (InsR Kinase Assay) (Homo sapiens, UniProt P06213); experiment: InsR kinase assay, ADP-Glo (ADP production); assay type: biochemical; details: activator; 50 μM ATP, substrate peptide, room temperature, 60 min
T1 construct: commercial kinase from InsR Kinase Assay (Promega)
T1 sequence (P06213 1011-1382 limits assumed): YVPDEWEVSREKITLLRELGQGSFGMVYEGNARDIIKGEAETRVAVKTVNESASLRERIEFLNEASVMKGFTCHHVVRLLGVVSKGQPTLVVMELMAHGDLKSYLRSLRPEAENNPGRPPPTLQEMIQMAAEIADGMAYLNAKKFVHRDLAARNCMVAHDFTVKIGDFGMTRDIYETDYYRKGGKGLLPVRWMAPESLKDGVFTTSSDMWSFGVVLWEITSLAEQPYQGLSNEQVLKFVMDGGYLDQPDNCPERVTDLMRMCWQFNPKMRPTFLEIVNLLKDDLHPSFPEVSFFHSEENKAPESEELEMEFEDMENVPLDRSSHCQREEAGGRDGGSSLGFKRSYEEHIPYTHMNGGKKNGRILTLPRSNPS

[2] = biological target: T2, IRβ (unphosphorylated beta subunit of insulin receptor) (Homo sapiens, UniProt P06213); experiment: surface plasmon resonance (Biacore T200), IRβ immobilised on CM5; assay type: binding
T2 construct: gene INSR; beta subunit, commercial recombinant protein; unphosphorylated; immobilised on CM5 chip
T2 sequence (P06213 763-1382 limits assumed): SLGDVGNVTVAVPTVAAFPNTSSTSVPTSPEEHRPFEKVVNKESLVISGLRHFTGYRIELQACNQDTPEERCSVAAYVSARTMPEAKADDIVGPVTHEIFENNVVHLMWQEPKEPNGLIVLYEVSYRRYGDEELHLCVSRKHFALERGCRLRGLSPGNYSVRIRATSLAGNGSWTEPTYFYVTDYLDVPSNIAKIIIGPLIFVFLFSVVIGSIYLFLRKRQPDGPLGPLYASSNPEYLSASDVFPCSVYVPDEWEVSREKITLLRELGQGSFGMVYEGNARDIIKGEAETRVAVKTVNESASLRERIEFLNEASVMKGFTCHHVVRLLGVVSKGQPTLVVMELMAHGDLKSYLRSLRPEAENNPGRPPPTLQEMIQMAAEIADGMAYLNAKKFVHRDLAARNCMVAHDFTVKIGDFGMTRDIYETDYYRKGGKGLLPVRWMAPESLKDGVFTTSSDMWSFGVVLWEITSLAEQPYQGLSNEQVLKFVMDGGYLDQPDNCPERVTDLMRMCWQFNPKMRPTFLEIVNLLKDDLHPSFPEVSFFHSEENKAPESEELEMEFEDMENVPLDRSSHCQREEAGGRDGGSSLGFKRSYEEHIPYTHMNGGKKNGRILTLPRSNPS

[3] = biological target: T1, insulin receptor (InsR Kinase Assay); experiment: InsR kinase assay, ADP-Glo (ADP production); assay type: biochemical; details: 50 μM ATP, substrate peptide, room temperature; turnover to ADP only

Row | % increase of kinase activity at 100 nM [1] | pKd [2] | SMILES | InsR kinase assay, ADP-Glo (ADP production) [3]
1 | 50% | 5.36 | CC1=NN(c2ccc(C(=O)O)cc2)C(=O)C1=Cc1ccc(-c2cc(C)c(C)cc2[N+](=O)[O-])o1 [C646] | 
2 |  |  | Nc1ncnc2c1ncn2[C@@H]1O[C@H](COP(=O)(O)OP(=O)(O)OP(=O)(O)O)[C@@H](O)[C@H]1O [ATP] | found a linear curve of ADP production (consumption of ATP by insulin receptor)
